Experimental data taken from ChEMBL document CHEMBL5634117 (Eur J Med Chem, 2023).

Tests used:
[1] = tested on: SK-OV-3; test: Growth inhibition of human SK-OV-3 cells assessed as reduction in cell viability measured after 48 hrs by SRB assay; type: functional
[2] = tested on: NCI-H23; test: Growth inhibition of human NCI-H23 cells assessed as reduction in cell viability measured after 48 hrs by SRB assay; type: functional
[3] = tested on: IGROV-1; test: Growth inhibition of human IGROV-1 cells assessed as reduction in cell viability measured after 48 hrs by SRB assay; type: functional
[4] = tested on: HL-60(TB); test: Growth inhibition of human HL-60(TB) cells assessed as reduction in cell viability measured after 48 hrs by SRB assay; type: functional
[5] = tested on: MOLT-4; test: Growth inhibition of human MOLT-4 cells assessed as reduction in cell viability measured after 48 hrs by SRB assay; type: functional
[6] = tested on: ACHN; test: Growth inhibition of human ACHN cells assessed as reduction in cell viability measured after 48 hrs by SRB assay; type: functional
[7] = tested on: A498; test: Growth inhibition of human A498 cells assessed as reduction in cell viability measured after 48 hrs by SRB assay; type: functional
[8] = tested on: Malme-3M; test: Growth inhibition of human Malme-3M cells assessed as reduction in cell viability measured after 48 hrs by SRB assay; type: functional
[9] = tested on: SNB-19; test: Growth inhibition of human SNB-19 cells assessed as reduction in cell viability measured after 48 hrs by SRB assay; type: functional
[10] = tested on: NCI/ADR-RES; test: Growth inhibition of human NCI/ADR-RES cells assessed as reduction in cell viability measured after 48 hrs by SRB assay; type: functional
[11] = tested on: SK-MEL-2; test: Growth inhibition of human SK-MEL-2 cells assessed as reduction in cell viability measured after 48 hrs by SRB assay; type: functional
[12] = tested on: BT-549; test: Growth inhibition of human BT-549 cells assessed as reduction in cell viability measured after 48 hrs by SRB assay; type: functional
[13] = tested on: OVCAR-5; test: Growth inhibition of human OVCAR-5 cells assessed as reduction in cell viability measured after 48 hrs by SRB assay; type: functional
[14] = tested on: UACC-257; test: Growth inhibition of human UACC-257 cells assessed as reduction in cell viability measured after 48 hrs by SRB assay; type: functional
[15] = tested on: T47D; test: Growth inhibition of human T47D cells assessed as reduction in cell viability measured after 48 hrs by SRB assay; type: functional
[16] = tested on: NCI-H460; test: Growth inhibition of human NCI-H460 cells assessed as reduction in cell viability measured after 48 hrs by SRB assay; type: functional
[17] = tested on: HCT-15; test: Growth inhibition of human HCT-15 cells assessed as reduction in cell viability measured after 48 hrs by SRB assay; type: functional
[18] = tested on: OVCAR-3; test: Growth inhibition of human OVCAR-3 cells assessed as reduction in cell viability measured after 48 hrs by SRB assay; type: functional
[19] = tested on: HOP-62; test: Growth inhibition of human HOP-62 cells assessed as reduction in cell viability measured after 48 hrs by SRB assay; type: functional
[20] = tested on: NCI-H522; test: Growth inhibition of human NCI-H522 cells assessed as reduction in cell viability measured after 48 hrs by SRB assay; type: functional
[21] = tested on: OVCAR-4; test: Growth inhibition of human OVCAR-4 cells assessed as reduction in cell viability measured after 48 hrs by SRB assay; type: functional
[22] = tested on: MCF7; test: Growth inhibition of human MCF7 cells assessed as reduction in cell viability measured after 48 hrs by SRB assay; type: functional
[23] = tested on: SF-295; test: Growth inhibition of human SF-295 cells assessed as reduction in cell viability measured after 48 hrs by SRB assay; type: functional
[24] = tested on: HOP-92; test: Growth inhibition of human HOP-92 cells assessed as reduction in cell viability measured after 48 hrs by SRB assay; type: functional
[25] = tested on: COLO 205; test: Growth inhibition of human COLO 205 cells assessed as reduction in cell viability measured after 48 hrs by SRB assay; type: functional
[26] = tested on: MDA-MB-435; test: Growth inhibition of human MDA-MB-435 cells assessed as reduction in cell viability measured after 48 hrs by SRB assay; type: functional
[27] = tested on: UO-31; test: Growth inhibition of human UO-31 cells assessed as reduction in cell viability measured after 48 hrs by SRB assay; type: functional
[28] = tested on: A549; test: Growth inhibition of human A549 cells assessed as reduction in cell viability measured after 48 hrs by SRB assay; type: functional
[29] = tested on: CCRF-CEM; test: Growth inhibition of human CCRF-CEM cells assessed as reduction in cell viability measured after 48 hrs by SRB assay; type: functional
[30] = tested on: LOX IMVI; test: Growth inhibition of human LOX IMVI cells assessed as reduction in cell viability measured after 48 hrs by SRB assay; type: functional
[31] = tested on: NCI-H322M; test: Growth inhibition of human NCI-H322M cells assessed as reduction in cell viability measured after 48 hrs by SRB assay; type: functional
[32] = tested on: Hs-578T; test: Growth inhibition of human Hs-578T cells assessed as reduction in cell viability measured after 48 hrs by SRB assay; type: functional
[33] = tested on: UACC-62; test: Growth inhibition of human UACC-62 cells assessed as reduction in cell viability measured after 48 hrs by SRB assay; type: functional
[34] = tested on: RXF 393; test: Growth inhibition of human RXF 393 cells assessed as reduction in cell viability measured after 48 hrs by SRB assay; type: functional
[35] = tested on: HCT-116; test: Growth inhibition of human HCT-116 cells assessed as reduction in cell viability measured after 48 hrs by SRB assay; type: functional
[36] = tested on: KM12; test: Growth inhibition of human KM12 cells assessed as reduction in cell viability measured after 48 hrs by SRB assay; type: functional
[37] = tested on: TK-10; test: Growth inhibition of human TK-10 cells assessed as reduction in cell viability measured after 48 hrs by SRB assay; type: functional
[38] = biological target: Mitogen-activated protein kinase 10 (Homo sapiens, UniProt P53779); test: Inhibition of human JNK3 at 10 uM in presence of ATP relative to control
Sequence of Mitogen-activated protein kinase 10 (P53779 whole entry): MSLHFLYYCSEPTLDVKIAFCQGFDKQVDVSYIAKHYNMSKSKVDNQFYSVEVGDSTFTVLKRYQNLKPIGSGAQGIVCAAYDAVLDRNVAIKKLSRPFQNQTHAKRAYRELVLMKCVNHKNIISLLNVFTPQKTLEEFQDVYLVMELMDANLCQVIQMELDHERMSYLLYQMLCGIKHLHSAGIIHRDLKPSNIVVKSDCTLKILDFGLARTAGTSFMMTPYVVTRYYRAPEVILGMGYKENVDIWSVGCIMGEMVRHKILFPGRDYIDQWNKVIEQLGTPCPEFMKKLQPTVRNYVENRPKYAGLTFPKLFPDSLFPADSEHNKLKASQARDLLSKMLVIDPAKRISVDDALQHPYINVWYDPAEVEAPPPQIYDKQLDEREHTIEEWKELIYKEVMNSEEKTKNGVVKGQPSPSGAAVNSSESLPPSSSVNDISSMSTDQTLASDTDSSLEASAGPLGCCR

[39] = biological target: Mitogen-activated protein kinase 8 (Homo sapiens, UniProt P45983); test: Inhibition of human JNK1 at 10 uM in presence of ATP relative to control
Sequence of Mitogen-activated protein kinase 8 (P45983 whole entry): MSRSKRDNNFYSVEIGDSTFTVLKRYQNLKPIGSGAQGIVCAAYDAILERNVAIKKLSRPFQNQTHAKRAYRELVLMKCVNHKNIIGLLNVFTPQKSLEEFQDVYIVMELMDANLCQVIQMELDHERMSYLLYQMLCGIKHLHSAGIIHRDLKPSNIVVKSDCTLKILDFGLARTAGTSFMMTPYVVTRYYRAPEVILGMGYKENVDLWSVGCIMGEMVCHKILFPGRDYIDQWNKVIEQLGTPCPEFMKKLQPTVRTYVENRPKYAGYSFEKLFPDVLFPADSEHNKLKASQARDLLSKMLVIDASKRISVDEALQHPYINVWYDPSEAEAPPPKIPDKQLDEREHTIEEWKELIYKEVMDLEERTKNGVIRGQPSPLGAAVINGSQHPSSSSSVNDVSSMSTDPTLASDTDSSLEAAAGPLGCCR

[40] = tested on: EKVX; test: Growth inhibition of human EKVX cells assessed as reduction in cell viability measured after 48 hrs by SRB assay; type: functional
[41] = tested on: SW-620; test: Growth inhibition of human SW620 cells assessed as reduction in cell viability measured after 48 hrs by SRB assay; type: functional
[42] = tested on: SNB-75; test: Growth inhibition of human SNB-75 cells assessed as reduction in cell viability measured after 48 hrs by SRB assay; type: functional
[43] = tested on: HCC 2998; test: Growth inhibition of human HCC 2998 cells assessed as reduction in cell viability measured after 48 hrs by SRB assay; type: functional
[44] = tested on: SK-MEL-28; test: Growth inhibition of human SK-MEL-28 cells assessed as reduction in cell viability measured after 48 hrs by SRB assay; type: functional
[45] = tested on: HT-29; test: Growth inhibition of human HT-29 cells assessed as reduction in cell viability measured after 48 hrs by SRB assay; type: functional
[46] = tested on: SF-539; test: Growth inhibition of human SF-539 cells assessed as reduction in cell viability measured after 48 hrs by SRB assay; type: functional

CC(C)(C)n1cc(-c2ccnc(NCCCNS(=O)(=O)c3ccc(Cl)cc3)c2)c(-c2cccc(O)c2)n1
GI50 [1]: 2350 nM
GI50 [2]: 1680 nM
GI50 [3]: 1880 nM
GI50 [4]: 2510 nM
GI50 [5]: 1910 nM
GI50 [6]: 1970 nM
GI50 [7]: 1510 nM
GI50 [8]: 1660 nM
GI50 [9]: 2180 nM
GI50 [10]: 1920 nM
GI50 [11]: 1920 nM
GI50 [12]: 1670 nM
GI50 [13]: 1570 nM
GI50 [14]: 1860 nM
GI50 [15]: 1820 nM
GI50 [16]: 1940 nM
GI50 [17]: 1520 nM
GI50 [18]: 1890 nM
GI50 [19]: 1740 nM
GI50 [20]: 1920 nM
GI50 [21]: 1940 nM
GI50 [22]: 1840 nM
GI50 [23]: 1790 nM
GI50 [24]: 1490 nM
GI50 [25]: 1660 nM
GI50 [26]: 1790 nM
GI50 [27]: 1890 nM
GI50 [28]: 1970 nM
GI50 [29]: 2130 nM
GI50 [30]: 1730 nM
GI50 [31]: 2460 nM
GI50 [32]: 1840 nM
GI50 [33]: 1650 nM
GI50 [34]: 1460 nM
GI50 [35]: 1670 nM
GI50 [36]: 2080 nM
GI50 [37]: 2380 nM
inhibition [38]: 99.2%
inhibition [39]: 100%
GI50 [40]: 2040 nM
GI50 [41]: 1770 nM
GI50 [42]: 1370 nM
GI50 [43]: 1760 nM
GI50 [44]: 1570 nM
GI50 [45]: 1440 nM
GI50 [46]: 1650 nM
